Laboratory results from PMC3958129, “Enzyme kinetics and distinct modulation of the protein kinase N family of kinases by lipid activators and small molecule inhibitors” (Bioscience Reports, 2014).
Where two headings read alike, the source gives them in different places.

Tests used:
[1] = tested on: Src; conditions: read-out: IC50 Src; panel of over 70 protein kinases; ref [29]; cited from earlier work
[2] = tested on: RIP2; conditions: read-out: IC50 RIP2; panel of over 70 protein kinases; ref [29]; cited from earlier work
[3] = tested on: PKN2; parameters: method as in PMID 17850214, PMID 10998351; conditions: ref [29],[30], cited from earlier work
[4] = tested on: CK1δ; conditions: read-out: IC50 CK1δ; panel of over 70 protein kinases; ref [29]; cited from earlier work
[5] = biological target: T1, PKN3 (Homo sapiens, UniProt Q6P5Z2); experiment: PKN3 kinase inhibition, off-chip mobility shift assay; type: biochemical; parameters: Full-length, FLAG-tagged human PKN1, PKN2 and PKN3 were expressed in mammalian HEK-293 cells
T1 sequence (Q6P5Z2 whole entry): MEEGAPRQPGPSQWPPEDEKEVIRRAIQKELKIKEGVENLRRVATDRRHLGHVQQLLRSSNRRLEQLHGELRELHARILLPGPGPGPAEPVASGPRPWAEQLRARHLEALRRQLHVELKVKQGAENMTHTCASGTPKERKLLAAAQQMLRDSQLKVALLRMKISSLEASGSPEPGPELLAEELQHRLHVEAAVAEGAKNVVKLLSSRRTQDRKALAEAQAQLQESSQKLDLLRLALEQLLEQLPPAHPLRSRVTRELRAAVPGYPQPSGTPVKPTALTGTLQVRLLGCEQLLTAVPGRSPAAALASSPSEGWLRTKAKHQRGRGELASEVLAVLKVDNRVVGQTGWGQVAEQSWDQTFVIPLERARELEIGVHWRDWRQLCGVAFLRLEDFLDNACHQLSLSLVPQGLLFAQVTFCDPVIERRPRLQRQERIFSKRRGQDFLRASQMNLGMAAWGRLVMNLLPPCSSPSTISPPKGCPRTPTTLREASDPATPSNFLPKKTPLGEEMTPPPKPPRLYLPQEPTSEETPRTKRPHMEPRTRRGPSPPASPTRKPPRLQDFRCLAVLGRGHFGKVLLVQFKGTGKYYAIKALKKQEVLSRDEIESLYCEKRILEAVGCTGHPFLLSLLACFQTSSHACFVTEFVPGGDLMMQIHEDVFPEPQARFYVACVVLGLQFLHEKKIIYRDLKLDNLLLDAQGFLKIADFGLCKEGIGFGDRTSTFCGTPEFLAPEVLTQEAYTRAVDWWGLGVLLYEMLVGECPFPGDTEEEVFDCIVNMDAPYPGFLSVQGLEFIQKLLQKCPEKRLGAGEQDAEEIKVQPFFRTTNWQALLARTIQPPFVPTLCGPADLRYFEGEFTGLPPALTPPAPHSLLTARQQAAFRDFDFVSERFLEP

[6] = biological target: T2, PKN1 (Homo sapiens, UniProt Q16512); experiment: PKN1 kinase inhibition, off-chip mobility shift assay; type: biochemical; parameters: Full-length, FLAG-tagged human PKN1, PKN2 and PKN3 were expressed in mammalian HEK-293 cells; host or cells: HEK-293 (transient transfection, pcDNA4/TO)
T2 sequence (Q16512 whole entry): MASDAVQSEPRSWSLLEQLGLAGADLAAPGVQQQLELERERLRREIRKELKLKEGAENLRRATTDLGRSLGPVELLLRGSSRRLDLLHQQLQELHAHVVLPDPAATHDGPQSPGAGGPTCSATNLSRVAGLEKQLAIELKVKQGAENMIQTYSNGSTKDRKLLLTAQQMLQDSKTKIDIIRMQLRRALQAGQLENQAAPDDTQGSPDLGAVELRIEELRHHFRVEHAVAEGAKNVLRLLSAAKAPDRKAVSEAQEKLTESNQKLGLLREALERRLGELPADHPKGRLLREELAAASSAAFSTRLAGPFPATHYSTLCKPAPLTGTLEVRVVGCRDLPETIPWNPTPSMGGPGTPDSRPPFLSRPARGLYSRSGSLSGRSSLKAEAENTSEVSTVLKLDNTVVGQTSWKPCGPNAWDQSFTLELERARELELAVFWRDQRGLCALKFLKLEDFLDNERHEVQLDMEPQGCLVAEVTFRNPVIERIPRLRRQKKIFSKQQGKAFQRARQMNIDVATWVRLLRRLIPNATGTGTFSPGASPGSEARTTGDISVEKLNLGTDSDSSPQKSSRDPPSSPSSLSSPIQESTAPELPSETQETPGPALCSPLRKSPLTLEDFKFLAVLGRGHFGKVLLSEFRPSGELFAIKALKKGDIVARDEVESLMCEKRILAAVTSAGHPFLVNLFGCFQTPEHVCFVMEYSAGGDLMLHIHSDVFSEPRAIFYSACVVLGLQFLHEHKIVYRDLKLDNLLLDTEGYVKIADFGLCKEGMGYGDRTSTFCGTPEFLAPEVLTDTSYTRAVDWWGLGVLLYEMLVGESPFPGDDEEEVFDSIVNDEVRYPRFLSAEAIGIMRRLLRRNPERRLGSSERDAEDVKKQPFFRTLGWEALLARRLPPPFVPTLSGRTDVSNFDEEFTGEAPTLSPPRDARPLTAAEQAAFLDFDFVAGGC

[7] = tested on: Lck; conditions: read-out: IC50 Lck; panel of over 70 protein kinases; ref [29]; cited from earlier work
[8] = tested on: CSK; conditions: read-out: IC50 CSK; panel of over 70 protein kinases; ref [29]; cited from earlier work
[9] = biological target: T3, PKN2 (Homo sapiens, UniProt Q16513); experiment: Bisubstrate steady-state kinetic analysis of PKN2 in the presence of arachidonic acid
T3 sequence (Q16513 whole entry): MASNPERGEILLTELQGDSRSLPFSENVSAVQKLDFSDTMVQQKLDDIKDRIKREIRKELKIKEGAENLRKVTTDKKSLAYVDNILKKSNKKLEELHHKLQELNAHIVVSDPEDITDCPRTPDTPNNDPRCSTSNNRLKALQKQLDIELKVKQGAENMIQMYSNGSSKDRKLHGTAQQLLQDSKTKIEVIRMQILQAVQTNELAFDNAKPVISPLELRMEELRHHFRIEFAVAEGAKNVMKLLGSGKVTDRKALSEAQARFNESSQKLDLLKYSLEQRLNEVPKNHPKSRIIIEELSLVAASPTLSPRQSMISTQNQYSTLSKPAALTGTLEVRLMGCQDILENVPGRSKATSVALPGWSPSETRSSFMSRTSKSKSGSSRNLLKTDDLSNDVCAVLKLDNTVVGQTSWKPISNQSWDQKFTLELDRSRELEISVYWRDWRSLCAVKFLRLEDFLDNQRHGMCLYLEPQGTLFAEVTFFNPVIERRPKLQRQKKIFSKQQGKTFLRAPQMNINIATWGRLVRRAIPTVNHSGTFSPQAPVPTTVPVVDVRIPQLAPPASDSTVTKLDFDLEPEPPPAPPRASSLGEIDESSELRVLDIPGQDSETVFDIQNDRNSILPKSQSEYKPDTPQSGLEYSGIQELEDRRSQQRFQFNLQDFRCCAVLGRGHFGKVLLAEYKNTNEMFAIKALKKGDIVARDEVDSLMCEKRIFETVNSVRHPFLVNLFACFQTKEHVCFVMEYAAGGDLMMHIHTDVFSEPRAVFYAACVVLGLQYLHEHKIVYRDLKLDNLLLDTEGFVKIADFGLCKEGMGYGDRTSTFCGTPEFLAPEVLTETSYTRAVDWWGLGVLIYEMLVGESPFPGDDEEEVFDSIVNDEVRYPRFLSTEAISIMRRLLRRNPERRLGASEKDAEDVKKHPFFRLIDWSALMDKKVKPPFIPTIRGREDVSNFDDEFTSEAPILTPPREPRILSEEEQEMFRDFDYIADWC

[10] = biological target: T3, PKN2; experiment: Lipid activation of PKN2 kinase activity, off-chip mobility shift assay; type: biochemical; parameters: Full-length, FLAG-tagged human PKN1, PKN2 and PKN3 were expressed in mammalian HEK-293 cells; host or cells: HEK-293 (transient transfection, pcDNA4/TO)
Experimental: (§1) Lipids were supplied as a solid powders, ethanol, or chloroform solutions. All solids were dissolved directly into assay buffer and briefly water bath sonicated at room temperature for 10 min. Lipids supplied as solutions in organic solvent were dried under a gentle stream of nitrogen, resuspended in assay buffer, and similarly sonicated. All lipids were prepared fresh daily.
(§2) The activity of all PKN proteins was monitored through the use of a highly sensitive off-chip mobility shift assay utilizing a LabChip EZ Reader II instrument (Caliper Life Sciences/PerkinElmer); this assay format has been described elsewhere. Kinase activity was monitored through the phosphorylation of a 5-FAM-labelled PKN substrate peptide found through Pfizer in-house optimization efforts and derived from the amino acid sequence of GSK3α (accession no. AAH51865.1) with the following sequence: 5-FAM-C6-[…]-NH2. The likely site of phosphorylation is underlined, as determined through comparison with the published phosphorylation consensus sequence for PKN1 and PKN3 substrates. Reaction buffer contained 25 mM Tris, pH 8.0, 5 mM MgCl2, 0.002% CHAPS and 2 mM DTT, with indicated protein, ATP and peptide concentrations. Peptide concentration was adjusted according to purity and peptide content. For inhibition studies, the inhibitor was pre-incubated with enzyme for 15 min at room temperature. All reactions were initiated with ATP and conducted at room temperature (~22°C). Reactions were terminated by the addition of EDTA, pH 8.0, at a final concentration of 25 mM. All reaction rates were determined to be linear with respect to time and enzyme concentration where no more than 20% of peptide substrate had been converted to product. Aliquots of each reaction were transferred in duplicate to a 384-well plate and analysed on a LabChip EZ Reader II with separation buffer containing 100 mM Hepes, pH 7.5, 0.015% Brij-35, 1 mM EDTA, 0.1% CR3 coating reagent, 1×CR8 coating reagent and 5% DMSO, with the following settings: downstream voltage: −500 V, upstream voltage: −2300 V, base pressure: −0.5 psi; screen pressure: −1.7 psi. […]
(§3) Figure 2 PKN responses to lipid activators in biochemical assays Lipids were prepared as described under the Experimental section, and kinase activity of PKN isoforms was measured using off-chip mobility shift assay described in the Methods section. Each lipid was titrated in the presence of 1 nM, 5 nM and 3 nM PKN1–3, respectively, 3 μM peptide and 500 μM ATP. vi is the initial rate at each concentration of lipid activator and vo is the initial rate in the absence of lipid.

[11] = biological target: T1, PKN3; experiment: Lipid activation of PKN3 kinase activity, off-chip mobility shift assay; type: biochemical; parameters: Full-length, FLAG-tagged human PKN1, PKN2 and PKN3 were expressed in mammalian HEK-293 cells
Experimental: as §1
The activity of all PKN proteins was monitored through the use of a highly sensitive off-chip mobility shift assay utilizing a LabChip EZ Reader II instrument (Caliper Life Sciences/PerkinElmer); this assay format has been described elsewhere. Kinase activity was monitored through the phosphorylation of a 5-FAM-labelled PKN substrate peptide found through Pfizer in-house optimization efforts and derived from the amino acid sequence of GSK3α (accession no. AAH51865.1) with the following sequence: 5-FAM-C6-[…]-NH2. The likely site of phosphorylation is underlined, as determined through comparison with the published phosphorylation consensus sequence for PKN1 and PKN3 substrates. Reaction buffer contained 25 mM Tris, pH 8.0, 5 mM MgCl2, 0.002% CHAPS and 2 mM DTT, with indicated protein, ATP and peptide concentrations. Peptide concentration was adjusted according to purity and peptide content. For inhibition studies, the inhibitor was pre-incubated with enzyme for 15 min at room temperature. All reactions were initiated with ATP and conducted at room temperature (~22°C). Reactions were terminated by the addition of EDTA, pH 8.0, at a final concentration of 25 mM. All reaction rates were determined to be linear with respect to time and enzyme concentration where no more than 20% of peptide substrate had been converted to product. Aliquots of each reaction were transferred in duplicate to a 384-well plate and analysed on a LabChip EZ Reader II with separation buffer containing 100 mM Hepes, pH 7.5, 0.015% Brij-35, 1 mM EDTA, 0.1% CR3 coating reagent, 1×CR8 coating reagent and 5% DMSO, with the following settings: downstream voltage: −500 V, upstream voltage: −2300 V, base pressure: −0.5 psi; screen pressure: −1.7 psi.
Ki values for representative inhibitors were determined by fitting initial reaction velocities to eqn (2) for competitive inhibition using the method of non-linear least-squares using GraphPad Prism. Turnover number (kcat) was calculated by normalizing Vmax values for enzyme concentration.
as §3

[12] = biological target: T1, PKN3; experiment: Bisubstrate steady-state kinetic analysis of PKN3 in the presence of arachidonic acid
[13] = biological target: T2, PKN1; experiment: Lipid activation of PKN1 kinase activity, off-chip mobility shift assay; type: biochemical; parameters: Full-length, FLAG-tagged human PKN1, PKN2 and PKN3 were expressed in mammalian HEK-293 cells; host or cells: HEK-293 (transient transfection, pcDNA4/TO); conditions: saturating ATP (500 μM), 3 μM peptide, 1 nM PKN1; for PKN1 Maximal fold activation: increase in initial rate
Experimental: as §1, §2, §3

[14] = biological target: T2, PKN1; experiment: Bisubstrate steady-state kinetic analysis of PKN1 in the presence of arachidonic acid
[15] = tested on: PKN1, PKN2 and PKN3; experiment: PKN isoform selectivity from Ki values (Ki ratio); type: biochemical, human
[16] = biological target: T3, PKN2; experiment: PKN2 kinase inhibition, off-chip mobility shift assay; type: biochemical; parameters: Full-length, FLAG-tagged human PKN1, PKN2 and PKN3 were expressed in mammalian HEK-293 cells; host or cells: HEK-293 (transient transfection, pcDNA4/TO); conditions: absence of lipids; fit to competitive inhibition; ±S.D., n=2; read-out: PKN2, Ki
[17] = absence of lipids, fit to competitive inhibition, ±S.D., n=2, read-out: PKN1, Ki
[18] = 100 μM vs 0 μM arachidonic acid

In the case of `Cc1ccc(-c2nn(C(C)(C)C)c3ncnc(N)c23)cc1` [Compound 8, PP1], the IC50 [1] is given as […], the IC50 [2] is given as 26 nM and the PKN2 remaining activity ([3]; at 1 μM) is given as 84%. For the same compound, the IC50 [4] was 170 nM, the Ki [5] was 1.3 ± 0.1 nM and the Ki [6] was greater than 5000 nM. The IC50 [7] was […] and the IC50 [8] was 640 nM.
For `C[C@@H](N)[C@H]1CC[C@H](C(=O)Nc2ccncc2)CC1` [Compound 7, Y27632], the IC50 [3] is given as […] and the Ki [6, 17] is given as 700 ± 200 nM.
With `CCCCC/C=C\C/C=C\C/C=C\C/C=C\CCCC(=O)O` [Arachidonic Acid] the “Kia of PKN2 (equilibrium dissociation constant of ATP)” value ([9]; 100 μM arachidonic acid) was 2 ± 1 µM, the “kcat of PKN2” value ([9]; 100 μM arachidonic acid) was 0.9 ± 0.1 s⁻¹ and the “increase in catalytic efficiency (kcat/KM,Pep) of PKN2” value [9, 18] was 12 fold. For the same compound, the “increase in kcat for PKN2” value [9, 18] was 9 fold, the “increase in kcat/KM,ATP of PKN2” value [9, 18] was 45 fold and the “reduction of ATP KM for PKN2” value [9, 18] was 6 fold. The “effect on PKN2 kinase activity” value ([10]; in words, saturating ATP) was “increased”, the “PKN2 Maximal fold activation” value ([10]; increase in initial rate, saturating ATP (500 μM), 3 μM peptide, 5 nM PKN2) was 7 fold and the EC50 ([10]; lipid activator, saturating ATP (500 μM), 3 μM peptide, 5 nM PKN2) was 9000 ± 1000 nM. The “effect on PKN3 kinase activity” value ([11]; higher concentrations of arachidonic acid (above 5 μM)) was “significantly inhibited”, the “PKN3 Maximal fold activation” value ([11]; increase in initial rate, saturating ATP (500 μM), 3 μM peptide, 3 nM PKN3) was less than 2 fold and the “effect on PKN3 kinase activity” value ([11]; relatively low (5 μM) concentration of arachidonic acid) was “slightly stimulated”. For the same compound, the “Kia of PKN3 (equilibrium dissociation constant of ATP)” value ([12]; 5 μM arachidonic acid) was 14 ± 3 µM, the “kcat of PKN3” value ([12]; 5 μM arachidonic acid) was 1.1 ± 0.1 s⁻¹ and the “reduction of ATP KM for PKN3” value ([12]; 5 μM vs 0 μM arachidonic acid) was 3 fold. For the same compound, the “effect on kcat for PKN3” value ([12]; arachidonic acid at 5 μM) was “no effect”, the “decrease in KM,Pep of PKN3” value ([12]; arachidonic acid at 5 μM vs 0 μM) was 4 fold and the “PKN1 Maximal fold activation” value [13] was 16 fold. For the same compound, the “PKN1 Maximal fold activation” value ([13]; listed as arachidonic acid) was 10–16 fold, the EC50 ([13]; lipid activator) was 11000 ± 1000 nM and the “Kia of PKN1 (equilibrium dissociation constant of ATP)” value ([14]; 100 μM arachidonic acid) was 19 ± 10 µM. The “kcat of PKN1” value ([14]; 100 μM arachidonic acid) was 13 ± 6 s⁻¹, the “effect on ATP KM for PKN1” value [14, 18] was “relatively unaffected” and the “increase in catalytic efficiency (kcat/KM,Pep) of PKN1” value [14, 18] was 32 fold. The “increase in kcat for PKN1” value [14, 18] was 18 fold.
In the case of `CN(C)CCCn1cc(C2=C(c3c[nH]c4ccccc34)C(=O)NC2=O)c2ccccc21` [Compound 3, GF 109203X], the “selectivity for PKN1/2 over PKN3” value ([15]; from Ki values) is reported as “at least 25 fold”, the Isoform selectivity ([15]; isoform(s) preferred, defined as ~10-fold or greater Ki ratio) is reported as “PKN1/2” and the Ki [16] is reported as 90 ± 20 nM. It also gave a Ki ([5]; absence of lipids, fit to competitive inhibition, ±S.D., n=2, read-out: PKN3, Ki) of 2300 ± 500 nM and a Ki [6, 17] of 79 ± 8 nM.
